# Measured values: publication PMC12383145, “Fluorescent Peptides Internalize HeLa Cells and Kill Multidrug-Resistant Clinical Bacterial Isolates” (Antibiotics, 2025)
# Where “and” joins values, the source holds several entries; their conditions need not be identical. Equal entries are not always repeated. Residues, ends and D or L forms follow the SMILES beside them. *: point of attachment. 5FAM = O=C1OC2(c3ccc(O)cc3Oc3cc(O)ccc32)c2ccc(C(=O)*)cc21
# What was measured:
# Assay type in all cases: cell-based
# erythrocytes = assay: Hemolysis assay; conditions: 2 h
# Method: (§1) Whole blood was collected into EDTA tubes and centrifuged at 2500 rpm for 10 min. The plasma and buffy coat were removed, and the erythrocytes were washed three times with 0.9% saline to yield a 4% cell suspension. In 96-well plates, 100 µL of peptide dilutions (6.25–200 µg/mL) were prepared in triplicate, and 100 µL of the erythrocyte suspension was added (final hematocrit 2%). Plates were incubated at 37 °C for 2 h, and then centrifuged again at 2500 rpm for 10 min. A 100 µL aliquot of the supernatant was transferred to a fresh plate, and absorbance was measured at 450 nm. Saline and 1× Triton X-100 served as the negative and positive controls, respectively. Hemolysis (%) was calculated as follows: %hemolysis=treatment absorbance−saline absorbance/1×triton absorbance−saline absorbance
# Hemolysis assay = conditions: Percentage of hemolysis
# Method: as §1
# [1] = MTT cytotoxicity assay in HeLa cells; conditions: human
# Method: MTT assays were conducted in HeLa cells to evaluate the effect of fluorescent probe incorporation on the in vitro cytotoxic activity of the parent non-conjugated peptides. The cytotoxic effect of peptides 1, Abz-1 RhB-1, 2, and RhB-2 in HeLa cells was peptide concentration-dependent, with the highest anticancer activity observed at 200 µg/mL. Incorporation of 2-Abz and RhB at the N-terminal end reduced cytotoxic activity, while the binding of 2-Abz at the C-terminal end or FAM at the N-terminal end drastically diminished anticancer activity (Table 4).
# [2] = system: E. faecalis clinical isolate 179; conditions: clinical isolate 179, 24 h
# Method: (§2) E. coli isolates 1004 (susceptible), 129797 (resistant), and 301755 (MDR) were selected for evaluation. Isolate 1004 was sensitive to all antibiotics tested. […] These findings identify it as a multidrug-resistant (MDR) strain and an extended-spectrum beta-lactamase (ESBL)-producing bacterium. For S. aureus, isolates 109095, 117719, and 124653 were evaluated. All three were resistant to penicillin, indicating beta-lactamase production mediated by the blaZ gene. Studies have shown that up to 90% of S. aureus isolates worldwide are penicillin-resistant, which implies that this antibiotic is ineffective in infections caused by this pathogen. […] Isolate 124653 was resistant to penicillin, tetracycline, and erythromycin, with the latter belonging to the group of macrolides, antibiotics that inhibit protein synthesis through interaction with the 50S […] subunit. For E. faecalis three isolates were selected: strains 213 (sensitive to all the antibiotics tested), strain 82 (resistant to streptomycin), and strain 179 (resistant to gentamicin). These clinical isolates were selected to assess the antimicrobial activity of the peptide RWQWRWQWR and its analogues conjugated to fluorescent molecules in strains against strains with susceptibility profiles.
# (§3) The analysis of synthesized peptides in ATCC reference strains and susceptible, resistant, and multidrug-resistant (MDR) clinical isolates was performed. The clinical isolates were obtained from the National Cancer Institute collection and were previously identified and antibiogrammed using the VITEK system. Additionally, the strains were characterized by MALDI-TOF. The strains were re-primed onto trypticase soy agar and subsequently preserved in Brain–Heart Infusion (BHI) broth containing 20% glycerol. For the MIC and MBC assays, the strains were reactivated and cultured in BHI until they reached their exponential growth phase.
# (§4) The minimum inhibitory concentration (MIC) of the peptides was determined by the broth microdilution technique, according to the Clinical and Laboratory Standards Institute (CLSI) guidelines, as previously described. Briefly, bacterial strains were incubated in BHI broth at 37 °C until they reached the exponential growth phase, and inocula were adjusted to 5 × 10^6 CFU/mL using calibration curves. Serial dilutions of the peptides to be evaluated in 96-well plates were made in 90 µL of Mueller Hinton broth at concentrations ranging from 200 to 6.25 µg/mL, and 10 µL of the inoculum adjusted to 5 × 10^6 CFU/mL was added. Finally, the plates were incubated at 37 °C for 24 h, and the absorbance at 620 nm was read. As a negative control, CMH, distilled water, and 10 µL of inoculum were used; for the positive control, vancomycin was used for Gram-positive strains and ciprofloxacin for Gram-negative strains at the MICs dictated by the CLSI; as a technical control, CMH with peptone water was used, and for the growth control, CMH was used with 10 µL of inoculum.
# (§5) To determine the minimum bactericidal concentration (MBC), the 96-well plates where the MIC was determined were used as a starting point. From these, an aliquot of the controls and those wells where no apparent bacterial growth was observed were spotted onto trypticase soy agar plates. The plates were incubated at 37 °C for 24 h, and the reading was taken, identifying the lowest concentration of the peptide where there was no bacterial growth as the MBC.
# [3] = system: E. coli clinical isolate 129797 (resistant); conditions: clinical isolate 129797 (resistant, 24 h)
# Method: as §2, §3, §4, §5
# [4] = system: S. aureus clinical isolate 109095; conditions: clinical isolate 109095, 24 h
# Method: as §2, §3, §4, §5
# [5] = system: S. aureus clinical isolate 124653; conditions: clinical isolate 124653, 24 h
# Method: as §2, §3, §4, §5
# [6] = system: E. faecalis clinical isolate 82; conditions: clinical isolate 82, 24 h
# Method: as §2, §3, §4, §5
# [7] = system: E. coli clinical isolate 301755 (MDR); conditions: clinical isolate 301755 (MDR, 24 h)
# Method: as §2, §3, §4, §5
# [8] = system: E. coli clinical isolate 1004 (susceptible); conditions: clinical isolate 1004 (susceptible, 24 h)
# Method: as §2, §3, §4, §5
# [9] = system: E. faecalis clinical isolate 213; conditions: clinical isolate 213, 24 h
# Method: as §2, §3, §4, §5
# [10] = system: S. aureus clinical isolate 11719; conditions: clinical isolate 11719, 24 h
# S. aureus ATCC 25923 = conditions: ATCC 25923, 24 h
# Method: as §4, §5
# E. coli ATCC 25922 = conditions: ATCC 25922, 24 h
# Method: as §4, §5
# [11] = system: K. pneumoniae ATCC 700603; conditions: ATCC 700603, 24 h
# Method: as §4, §5
# P. aeruginosa ATCC 27853 = conditions: ATCC 27853, 24 h
# Method: as §4, §5
# E. faecalis ATCC 29212 = conditions: ATCC 29212, 24 h
# Method: as §4, §5
smiles,measurement,setting,value
"N=C(N)NCCC[C@H](NC(=O)[C@H](Cc1c[nH]c2ccccc12)NC(=O)[C@H](CCC(N)=O)NC(=O)[C@H](Cc1c[nH]c2ccccc12)NC(=O)[C@H](CCCNC(=N)N)NC(=O)[C@H](Cc1c[nH]c2ccccc12)NC(=O)[C@H](CCC(N)=O)NC(=O)[C@H](Cc1c[nH]c2ccccc12)NC(=O)[C@H](CCCNC(=N)N)NC(=O)c1ccc2c(c1)C(=O)OC21c2ccc(O)cc2Oc2cc(O)ccc21)C(N)=O [FAM-1, FAM-RWQWRWQWR] (5FAM-RWQWRWQWR-NH2)",Therapeutic index,erythrocytes,0.25
same,hemolysis at 2 h,Hemolysis assay,17%
same,IC50,[1],> 200 µg/mL and > 108 µM
same,Minimal bactericidal concentration (MBC),[2],> 108 µM
same,Minimal inhibitory concentration (MIC),[2],> 108 µM
same,Minimal bactericidal concentration (MBC),[3],> 108 µM
same,Minimal inhibitory concentration (MIC),[3],> 108 µM
same,Minimal bactericidal concentration (MBC),[4],> 108 µM
same,Minimal inhibitory concentration (MIC),[4],> 108 µM
same,Minimal bactericidal concentration (MBC),[5],> 108 µM
same,Minimal inhibitory concentration (MIC),[5],> 108 µM
same,Minimal bactericidal concentration (MBC),[6],> 108 µM
same,Minimal inhibitory concentration (MIC),[6],54 µM
same,Minimal bactericidal concentration (MBC),[7],> 108 µM
same,Minimal inhibitory concentration (MIC),[7],108 µM
same,Minimal bactericidal concentration (MBC),[8],> 108 µM
same,Minimal inhibitory concentration (MIC),[8],108 µM
same,Minimal bactericidal concentration (MBC),[9],> 108 µM
same,Minimal inhibitory concentration (MIC),[9],108 µM
same,Minimal bactericidal concentration (MBC),[10],> 108 µM
same,Minimal inhibitory concentration (MIC),[10],> 108 µM
same,Minimal bactericidal concentration (MBC),S. aureus ATCC 25923,> 108 µM
same,Minimal inhibitory concentration (MIC),S. aureus ATCC 25923,108 µM
same,Minimal bactericidal concentration (MBC),E. coli ATCC 25922,> 108 µM
same,Minimal inhibitory concentration (MIC),E. coli ATCC 25922,108 µM
same,Minimal bactericidal concentration (MBC),[11],> 108 µM
same,Minimal inhibitory concentration (MIC),[11],> 108 µM
same,Minimal bactericidal concentration (MBC),P. aeruginosa ATCC 27853,> 108 µM
same,Minimal inhibitory concentration (MIC),P. aeruginosa ATCC 27853,> 108 µM
same,Minimal bactericidal concentration (MBC),E. faecalis ATCC 29212,> 108 µM
same,Minimal inhibitory concentration (MIC),E. faecalis ATCC 29212,54 µM
